Values quoted from earlier work, collected in patent US9199026B2, “Modular extracorporeal systems and methods for treating blood-borne diseases” (SOMERSET GROUP ENTERPRISES, INC., priority 2011, dated 2015).
Blank lines part the entries; values can stand above or below the compound they belong to.

Experiments:
Listeria = details: carbonation volume about 2, about 35° C., pressure up to about 350 MPa, about 300 seconds
pathogen = details: pH 6.0 compared to pH 7.4
[1] = at acidic pH
S. aureus = details: basic vs slightly acidic pH
MRSA = details: raised oxygen levels

SMILES: O=C=O [CO2, Carbon dioxide]
effect on inactivation of Listeria (Listeria): enhanced the inactivation of Listeria

SMILES: N#Cc1c(N2C[C@@H]3NCCO[C@H]3C2)c(F)cc2c(=O)c(C(=O)O)cn(C3CC3)c12 [Finafloxacin, finafloxacin]
increase in activity (lowering of the MIC) (pathogen): 4- to 8 fold

fraction under a neutral form [1]: 50%
SMILES: Nc1nc(-n2cc(C(=O)O)c(=O)c3cc(F)c(N4CC(O)C4)c(Cl)c32)c(F)cc1F [delafloxacin]

SMILES: CN[C@H](CC(C)C)C(=O)N[C@H]1C(=O)N[C@@H](CC(N)=O)C(=O)N[C@H]2C(=O)N[C@H]3C(=O)N[C@H](C(=O)N[C@H](C(=O)O)c4cc(O)cc(O)c4-c4cc3ccc4O)[C@H](O)c3ccc(c(Cl)c3)Oc3cc2cc(c3O[C@@H]2O[C@H](CO)[C@@H](O)[C@H](O)[C@H]2O[C@H]2C[C@](C)(N)[C@H](O)[C@H](C)O2)Oc2ccc(cc2Cl)[C@H]1O [vancomycin]
killing S. aureus, basic versus slightly acidic conditions (S. aureus): killing S. aureus under basic conditions better than under slightly acidic conditions
effect of raising oxygen levels on resistance of MRSA (MRSA): decreases the resistance of MRSA to vancomycin
